Assays:
Assay type in all cases: in vivo
[1] = tested on: diamondback moths (Plutella xylostella); test: Test Example 1: cabbage foliar spray, diamondback moth larvae, controlling value; conditions: 120 h, flowable formulation, 20 mL/cup on cabbage, third-instar larvae, after 5 days; for pest or weed control at 500 ppm: 500 ppm active ingredient; for pest or weed control at 200 ppm: 200 ppm active ingredient
Experimental: Thus, test spray solutions were prepared. On the other hand, cabbage was planted in a polyethylene cup, and grown until the third true leaf or the fourth true leaf was developed. The test spray solution as described above was sprayed in an amount of 20 mL/cup on the cabbage. After the spray solution on the cabbage was dried, 10 third-instar larvae of diamondback moths (Plutella xylostella) were placed on the cabbage. After 5 days, the number of diamondback moths was counted, and the controlling value was calculated by the following equation. Controlling value(%)={1−(Cb×Tai)/(Cai×Tb))×100 wherein Cb: the number of worms in an untreated group before treatment; Cai: the number of worms in an untreated group on observation; Tb: the number of worms in a treated group before treatment; Tai: the number of worms in a treated group on observation.

[2] = tested on: cotton aphids (Aphis gossypii); test: Test Example 2: cucumber foliar spray, cotton aphids, controlling value; conditions: 144 h, flowable formulation, 20 mL/cup on cucumber, six days after spraying; for pest or weed control at 500 ppm: 500 ppm active ingredient; for pest or weed control at 200 ppm: 200 ppm active ingredient
Experimental: Thus, test spray solutions were prepared. On the other hand, cucumber was planted in a polyethylene cup, and was grown until the first true leaf was developed. About 30 cotton aphids (Aphis gossypii) were placed on the cucumber. One day after, the test spray solution as described above was sprayed in an amount of 20 mL/cup on the cucumber. Six days after spraying, the number of cotton aphids was counted, and a controlling value was calculated by the following equation. Controlling value(%)={1−(Cb×Tai)/(Cai×Tb))×100

[3] = tested on: common cutworm (Spodoptera litura); test: Test Example 3: cabbage foliar spray, common cutworm larvae, controlling value; conditions: 96 h, flowable formulation, 20 mL/cup on cabbage, fourth-instar larvae, after 4 days; for pest or weed control at 500 ppm: 500 ppm active ingredient; for pest or weed control at 200 ppm: 200 ppm active ingredient
Experimental: Thus, test spray solutions were prepared. On the other hand, cabbage was planted in a polyethylene cup, and grown until the third true leaf or the fourth true leaf was developed. The test spray solution as described above was sprayed in an amount of 20 mL/cup on the cabbage. After the spray solution sprayed on the cabbage was dried, 10 fourth-instar larvae of common cutworm (Spodoptera litura) were placed on the cabbage. After 4 days, the number of common cutworm surviving on the cabbage leaves was counted, and a controlling value was calculated by the following equation. Controlling value(%)={1−(Cb×Tai)/(Cai×Tb))×100

[4] = tested on: yellow citrus thrips (Franklinella occidentalis); test: Test Example 5: cucumber leaf spray, yellow citrus thrips larvae, controlling value; conditions: 168 h, flowable formulation, 20 mL/cup on cucumber, cut first true leaf, 20 larvae, leaf area damaged, seven days after spraying; for pest or weed control at 500 ppm: 500 ppm active ingredient; for pest or weed control at 200 ppm: 200 ppm active ingredient
Experimental: Thus, test spray solutions were prepared. On the other hand, cucumber was planted in a polyethylene cup, and was grown until the first true leaf was developed. The test spray solution as described above was sprayed in an amount of 20 mL/cup on the cucumber. After the spray solution on the cucumber was dried, the first true leaf was cut and then placed on a filter paper (diameter: 70 mm) containing water in a polyethylene cup (diameter: 110 mm). On the cucumber leaf, 20 larvae of yellow citrus thrips ([…] occidentalis) were released, and the polyethylene cup was capped. Seven days after spraying, the percentage of leaf area damaged by the insect was examined and a controlling value was calculated by the following equation. Controlling value(%)={1-(Cb×Tai)/(Cai×Tb))×100

[5] = tested on: summer fruit tortrix (Adoxophyes orana fasciata); test: Test Example 4: apple seedling spray, summer fruit tortrix larvae, controlling value; conditions: 168 h, flowable formulation, 20 mL on apple seedling, first-instar larvae, seven days after spraying; for pest or weed control at 200 ppm: 200 ppm active ingredient; for pest or weed control at 500 ppm: 500 ppm active ingredient
Experimental: Thus, test spray solutions were prepared. On the other hand, 20 mL of the test spray solution as described above was sprayed to an apple seedling (28 day-old seeding; tree height: about 15 cm) planted in a plastic cup. The apple seedling was air-dried to such an extent that the spray solution sprayed on the apple seedling was dried, and about 30 first-instar larvae of summer fruit tortrix (Adoxophyes orana fasciata) were released. Seven days after spraying, the number of worms surviving on the apple seedling was counted, and a controlling value was calculated by the following equation. Controlling value(%)={1−(Cb×Tai)/(Cai×Tb))×100

SMILES	pest or weed control at 500 ppm [1] [%]	pest or weed control at 500 ppm [2] [%]	pest or weed control at 500 ppm [3] [%]	pest or weed control at 500 ppm [4] [%]	pest or weed control at 200 ppm [1] [%]	pest or weed control at 200 ppm [2] [%]	pest or weed control at 200 ppm [3] [%]	pest or weed control at 200 ppm [5] [%]	pest or weed control at 200 ppm [4] [%]	pest or weed control at 500 ppm [5] [%]
COC(=O)NN(CCO)C(=O)c1cc(Br)cc(Br)c1NC(=O)c1cc(Br)nn1-c1ncccc1Cl [1-61]	100	≥ 90	≥ 80	100	–	–	–	–	–	–
C#CCN(NC(=O)c1cc(Br)cc(Br)c1NC(=O)c1cc(Br)nn1-c1ncccc1Cl)C(=O)OC [1-32]	–	–	–	–	100	≥ 90	≥ 80	100	100	–
COC(=O)NN(CC=C(Cl)Cl)C(=O)c1cc(Br)cc(Br)c1NC(=O)c1cc(Br)nn1-c1ncccc1Cl [1-63]	100	≥ 90	≥ 80	100	–	–	–	–	–	100
CCN(C(=O)c1cc(Br)cc(Br)c1NC(=O)c1cc(Br)nn1-c1ncccc1Cl)N(CC#N)C(=O)OC [1-1]	100	≥ 90	≥ 80	100	–	–	–	–	–	100
C=CCN(NC(=O)c1cc(Br)cc(Br)c1NC(=O)c1cc(Br)nn1-c1ncccc1Cl)C(=O)OC [1-8]	100	≥ 90	≥ 80	100	–	–	–	–	–	100
C=CCN(NC(=O)OC)C(=O)c1cc(Cl)cc(Cl)c1NC(=O)c1cc(Br)nn1-c1ncccc1Cl [1-9]	100	≥ 90	≥ 80	100	–	–	–	–	–	100
COC(=O)NN(Cc1ccccc1)C(=O)c1cc(Cl)cc(C)c1NC(=O)c1cc(Br)nn1-c1ncccc1Cl [1-57]	100	≥ 90	≥ 80	100	–	–	–	–	–	–
C=CCN(NC(=O)OC)C(=O)c1cc(Cl)cc(C)c1NC(=O)c1cc(Br)nn1-c1ncccc1Cl [1-11]	–	–	–	–	100	≥ 90	≥ 80	100	–	–
COC(=O)N(NC(=O)c1cc(Br)cc(Br)c1NC(=O)c1cc(Br)nn1-c1ncccc1Cl)c1ccccn1 [1-5]	100	≥ 90	≥ 80	100	–	–	–	–	–	100
COC(=O)N(CC=C(Cl)Cl)NC(=O)c1cc(Br)cc(Br)c1NC(=O)c1cc(Br)nn1-c1ncccc1Cl [1-64]	100	≥ 90	≥ 80	100	–	–	–	–	–	100
C=CCN(NC(=O)c1cc(Cl)cc(C)c1NC(=O)c1cc(Br)nn1-c1ncccc1Cl)C(=O)OC [1-12]	100	≥ 90	≥ 80	100	–	–	–	–	–	100
COC(=O)N(NC(=O)c1cc(Br)cc(Br)c1NC(=O)c1cc(Br)nn1-c1ncccc1Cl)C1CCCCC1 [1-59]	100	≥ 90	≥ 80	–	–	–	–	–	–	–
COC(=O)N(Cc1ccccc1)NC(=O)c1cc(Cl)cc(C)c1NC(=O)c1cc(Br)nn1-c1ncccc1Cl [1-58]	100	≥ 90	≥ 80	100	–	–	–	–	–	–
C#CCN(NC(=O)OC)C(=O)c1cc(Br)cc(Br)c1NC(=O)c1cc(Br)nn1-c1ncccc1Cl [1-31]	–	–	–	–	100	≥ 90	≥ 80	100	100	–
COC(=O)N(NC(=O)c1cc(Cl)cc(C)c1NC(=O)c1cc(Br)nn1-c1ncccc1Cl)C1CCCCC1 [1-60]	100	–	≥ 80	–	–	–	–	–	–	100
COC(=O)N(NC(=O)c1cc(Cl)cc(C)c1NC(=O)c1cc(Br)nn1-c1ncccc1Cl)c1ccccn1 [1-6]	100	≥ 90	≥ 80	100	–	–	–	–	–	100
C=CCN(NC(=O)OC)C(=O)c1cc(Br)cc(Br)c1NC(=O)c1cc(Br)nn1-c1ncccc1Cl [1-7]	100	≥ 90	≥ 80	100	–	–	–	–	–	100
C=CCN(NC(=O)c1cc(Cl)cc(Cl)c1NC(=O)c1cc(Br)nn1-c1ncccc1Cl)C(=O)OC [1-10]	100	≥ 90	≥ 80	100	–	–	–	–	–	100

— patent US20100048640A1, “HYDRAZIDE COMPOUND AND HARMFUL ARTHROPOD-CONTROLLING AGENT CONTAINING THE SAME” (Sumitomo Chemical Company, Limited, priority 2007, published 2010)
